Laboratory results taken from US20090005398A1, “Methods For The Treatment of Central Nervous System Tumors” (priority 2007, published 2009).

How the values were obtained:
[1] = High throughput solubility assay; assay type: physicochemical; details: aqueous buffer, pH 7.4, 0.05M phosphate buffer
Protocol: Two samples are prepared. One (the standard sample) contains the compound at a fixed concentration of 20 μM in an aqueous/organic mixed solvent cocktail. The other (the test sample) contains the compound at a maximum concentration of 200 μM in pH 7.4, 0.05M phosphate buffer and shaking for 24 h. The test sample is filtered by 0.45μ filter and then spun for 10 min to remove any undissolved solid. HPLC analyses are preformed on these samples. The peak areas are used for computing solubility.

A172 [2] = assay: Multiple cell line screen, cell proliferation; assay type: cell-based; details: Homo sapiens, A 172, 72 h; glioblastoma; nuclei count, 3 days
Protocol: (§1) Growth properties for multiple cell lines were used to determine two seeding densities for each cell line that would be used in the screen. Cell lines were thawed and grown to 70-80% confluency before being used in the assay. On day −1, cells were seeded at 2 densities in 384-well plates and incubated at 37° C. overnight. Stock compound plates were prepared in advance which contained dimethyl sulfoxide (DMSO) alone and a 9-point half-log decreasing dose range of the compound in DMSO. These plates were stored at −80° C. and each plate was only thawed once and used. On day 0, the main assay plates received compound or DMSO via a sonic delivery system (ECHO). The highest final concentration of compound of the dose range in the culture plates was 10 uM. These plates were cultured at 37° C. for 3 days.
(§2) On day 3, the compound treated plates were stained and fixed to measure proliferation, apoptosis, and mitotic index. A nuclear stain was used to identify cells in the wells. By counting the number of nuclei, the proliferation index of compound treated groups were calculated as a percentage relative to the DMSO control, which was set to 100%. The IC50 values were calculated using model 205 in ExcelFit.

CCF-SSTG1 = assay: Multiple cell line screen, cell proliferation; assay type: cell-based; details: 72 h; astrocytoma; nuclei count, 3 days
Protocol: as §1, §2

D283Med = assay: Multiple cell line screen, cell proliferation; assay type: cell-based; details: Homo sapiens, D283 Med, 72 h; medulloblastoma; nuclei count, 3 days
Protocol: as §1, §2

DBTRG-05MG = assay: Multiple cell line screen, cell proliferation; assay type: cell-based; details: Homo sapiens, 72 h, glioblastoma, nuclei count, 3 days
Protocol: as §1, §2

DK-MG = assay: Multiple cell line screen, cell proliferation; assay type: cell-based; details: 72 h; glioblastoma; nuclei count, 3 days
Protocol: as §1, §2

H4 [3] = assay: Multiple cell line screen, cell proliferation; assay type: cell-based; details: 72 h; glioma; nuclei count, 3 days
Protocol: as §1, §2

SF-268 [4] = assay: Multiple cell line screen, cell proliferation; assay type: cell-based; details: Homo sapiens, SF-268, 72 h; glioblastoma; nuclei count, 3 days
Protocol: as §1, §2

SF-295 [5] = assay: Multiple cell line screen, cell proliferation; assay type: cell-based; details: Homo sapiens, SF-295, 72 h; glioblastoma; nuclei count, 3 days
Protocol: as §1, §2

SF-539 [6] = assay: Multiple cell line screen, cell proliferation; assay type: cell-based; details: Homo sapiens, SF-539, 72 h; astrocytoma; nuclei count, 3 days
Protocol: as §1, §2

SNB-19 [7] = assay: Multiple cell line screen, cell proliferation; assay type: cell-based; details: Homo sapiens, SNB-19, 72 h; glioblastoma; nuclei count, 3 days
Protocol: as §1, §2

SNB-75 = assay: Multiple cell line screen, cell proliferation; assay type: cell-based; details: Homo sapiens, SNB-75, 72 h; glioblastoma; nuclei count, 3 days
Protocol: as §1, §2

SW1088 [8] = assay: Multiple cell line screen, cell proliferation; assay type: cell-based; details: Homo sapiens, SW1088, 72 h; astrocytoma; nuclei count, 3 days
Protocol: as §1, §2

U-87MG = assay: Multiple cell line screen, cell proliferation; assay type: cell-based; details: Homo sapiens, 72 h, glioblastoma, astrocytoma, nuclei count, 3 days
Protocol: as §1, §2

A172 [9] = assay: Washout assay, recovery of cell growth (MTT); assay type: cell-based; details: A172, glioblastoma; 3 days exposure then washout
Protocol: (§3) Seven glioma cell lines that can double at least once over three days were thawed and grown to 70-80% confluency before being used in the assay. On day 1, for each cell line, 2-3×10^5 cells were seeded into each well in 6-well cell culture plates and incubated at 37° C. overnight. […] The plates were incubated at 37° C. for 3 days.
(§4) On day 5, the compound was efficiently washed four times with culture medium supplemented with 20% fetal bovine serum (FBS) and then washed once in buffered saline solution (PBS). The cells were trypsinized. For each of the concentrations, compound-treated cell lines were plated into five 96-well plates at 5000 cells per well. For the next 4 consecutive days, one plate of the cells was taken out of the incubator and cell proliferation was measured by MTT ELISA assay.
(§5) The washout assay is designed to follow the cells' recovery from exposure to the compound. Each glioma cell line was assayed at least twice. The criteria for evaluating sensitivity or resistance was Last Growth Back Concentration (LGC), if LGC<=30 nM, the cell line is considered sensitive; if LGC>=1 uM, it is considered resistant; if LGC is in between these two concentrations, the cell line is considered intermediate. Based on criteria set, all the glioma cell lines appeared to be sensitive to the compound of Example 1.

H4 [10] = assay: Washout assay, recovery of cell growth (MTT); assay type: cell-based; details: H4, glioma; 3 days exposure then washout
Protocol: as §3, §4, §5

SF-268 [11] = assay: Washout assay, recovery of cell growth (MTT); assay type: cell-based; details: SF-268, glioblastoma; 3 days exposure then washout
Protocol: as §3, §4, §5

SF-295 [12] = assay: Washout assay, recovery of cell growth (MTT); assay type: cell-based; details: SF-295, glioblastoma; 3 days exposure then washout
Protocol: as §3, §4, §5

SF-539 [13] = assay: Washout assay, recovery of cell growth (MTT); assay type: cell-based; details: SF-539, astrocytoma; 3 days exposure then washout
Protocol: as §3, §4, §5

SNB-19 [14] = assay: Washout assay, recovery of cell growth (MTT); assay type: cell-based; details: SNB-19, glioblastoma; 3 days exposure then washout
Protocol: as §3, §4, §5

SW1088 [15] = assay: Washout assay, recovery of cell growth (MTT); assay type: cell-based; details: SW1088, astrocytoma; 3 days exposure then washout
Protocol: as §3, §4, §5

glioma cell lines = assay: Washout assay, all cell lines together; assay type: cell-based; details: all seven glioma cell lines of Table 5
Protocol: as §3, §4, §5

- solubility at 24 h [1]: > 100 µM
- IC50 (SW1088 [8]): < 50 nM
- IC50 (U-87MG): < 50 nM
SMILES: C[C@@H](Oc1cc(-n2cnc3ccc(CN4CCN(C)CC4)cc32)sc1C(N)=O)c1ccccc1C(F)(F)F [Example 1, 5-{6-[(4-Methylpiperazin-1-yl)methyl]-1H-benzimidazol-1-yl}-3-{(1R)-1-[2-(trifluoromethyl)phenyl]ethoxy}thiophene-2-carboxamide]
- IC50 (A172 [2]): < 50 nM
- IC50 (CCF-SSTG1): < 50 nM
- IC50 (D283Med): < 50 nM
- IC50 (DBTRG-05MG): < 50 nM
- IC50 (DK-MG): < 50 nM
- IC50 (H4 [3]): < 50 nM
- IC50 (SF-268 [4]): < 50 nM
- IC50 (SF-295 [5]): < 50 nM
- IC50 (SF-539 [6]): < 50 nM
- IC50 (SNB-19 [7]): < 50 nM
- IC50 (SNB-75): 50 to 100 nM
- LGC (Last Growth Back Concentration) (A172 [9]): <10 nM
- LGC (Last Growth Back Concentration) (H4 [10]): 10 nM
- LGC (Last Growth Back Concentration) (SF-268 [11]): 10 nM
- LGC (Last Growth Back Concentration) (SF-295 [12]): 10 nM
- LGC (Last Growth Back Concentration) (SF-539 [13]): 30 nM
- LGC (Last Growth Back Concentration) (SNB-19 [14]): 10 nM
- LGC (Last Growth Back Concentration) (SW1088 [15]): 10 nM
- sensitivity of glioma cell lines by LGC criteria (glioma cell lines): sensitive (LGC<=30 nM)
